Experimental data: article PMC3265452 (PLoS Neglected Tropical Diseases, 2012)
Structures can show the parent of a compound that is named as a salt.

Each molecule was assayed against AaDOP2 (Aedes aegypti, UniProt H6D5H2) (assay: AaDOP2 antagonist screen of the LOPAC1280 library (HEK-CRELuc-Aadop2 cells, luminescence)). Settings: not given.
AaDOP2, sequence (H6D5H2 1-476): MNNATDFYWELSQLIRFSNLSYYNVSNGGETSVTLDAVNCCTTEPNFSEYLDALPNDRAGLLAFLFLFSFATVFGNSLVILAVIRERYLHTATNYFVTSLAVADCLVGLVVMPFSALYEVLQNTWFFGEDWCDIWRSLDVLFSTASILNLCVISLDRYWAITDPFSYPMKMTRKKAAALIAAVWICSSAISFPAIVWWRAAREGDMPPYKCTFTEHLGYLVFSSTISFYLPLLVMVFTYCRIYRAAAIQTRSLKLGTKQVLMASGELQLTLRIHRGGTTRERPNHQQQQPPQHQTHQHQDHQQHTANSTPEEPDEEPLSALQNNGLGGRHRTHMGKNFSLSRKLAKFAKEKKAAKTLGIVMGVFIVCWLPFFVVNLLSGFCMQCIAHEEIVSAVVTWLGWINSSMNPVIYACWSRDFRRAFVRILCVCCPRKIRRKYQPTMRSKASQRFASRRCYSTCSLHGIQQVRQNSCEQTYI
Type: cell-based
For `COc1cc2c(cc1OC)-c1c/c(=N\c3c(C)cc(C)cc3C)n(C)c(=O)n1CC2` [Compound 1157, Trequinsin hydrochloride], the “Compound effect (percent receptor signaling in presence of test compound, relative lux units relative to the SCH23390 control)” value was 133. For `C[N+](C)(C)CCOP(=O)([O-])OP(=O)([O-])OC[C@H]1O[C@@H](n2ccc(N)nc2=O)[C@H](O)[C@@H]1O.[Na+]` [Compound 216, Citicoline sodium], the “Compound effect (percent receptor signaling in presence of test compound, relative lux units relative to the SCH23390 control)” value was 91. `O=c1c(O)c(-c2ccc(O)c(O)c2)oc2cc(O)cc(O)c12` [Compound 1028, Quercetin dihydrate] was tested, and the “Compound effect (percent receptor signaling in presence of test compound, relative lux units relative to the SCH23390 control)” value was 34. For `CCN(c1nc(N)c(C(=O)NC(=N)N)nc1Cl)C(C)C` [Compound 37, 5-(N-Ethyl-N-isopropyl)amiloride], the “Compound effect (percent receptor signaling in presence of test compound, relative lux units relative to the SCH23390 control)” value was 75. With `CC/C(=C(\c1ccccc1)c1ccc(OCCN(C)C)cc1)c1ccccc1` [Compound 1217, Tamoxifen citrate] the “Compound effect (percent receptor signaling in presence of test compound, relative lux units relative to the SCH23390 control)” value was 87. In the case of `COC(=O)c1c(C)[nH]c(C)c1C(=O)c1ccccc1Cc1ccccc1` [Compound 543, FPL 64176], the “Compound effect (percent receptor signaling in presence of test compound, relative lux units relative to the SCH23390 control)” value is reported as 86. In the case of `CN(C)CCCN1c2ccccc2Sc2ccc(C(F)(F)F)cc21` [Compound 1163, Triflupromazine hydrochloride], the “Compound effect (percent receptor signaling in presence of test compound, relative lux units relative to the SCH23390 control)” value is reported as 12. In the case of `O=C(O)CCC/C=C\C[C@@H]1[C@@H](/C=C/[C@H](O)C2Cc3ccccc3C2)[C@@H](F)C[C@@H]1O` [Compound 45, AL-8810], the “Compound effect (percent receptor signaling in presence of test compound, relative lux units relative to the SCH23390 control)” value is reported as 102. In the case of `Clc1cccc(Cl)c1N=C1NCCN1` [Compound 299, Clonidine hydrochloride], the “Compound effect (percent receptor signaling in presence of test compound, relative lux units relative to the SCH23390 control)” value is reported as 100. In the case of `O.c1cnc2c(c1)ccc1cccnc12` [Compound 995, 1,10-Phenanthroline monohydrate], the “Compound effect (percent receptor signaling in presence of test compound, relative lux units relative to the SCH23390 control)” value is reported as 95. `NC(=O)C(=O)O` [Compound 900, Sodium Oxamate] was tested, and the “Compound effect (percent receptor signaling in presence of test compound, relative lux units relative to the SCH23390 control)” value was 91. For `CCOC(=O)[N-]c1cn(N2CCOCC2)n[o+]1` [Compound 753, Molsidomine], the “Compound effect (percent receptor signaling in presence of test compound, relative lux units relative to the SCH23390 control)” value was 98. In the case of `CN(C)c1nc(N)c(C(=O)NC(=N)N)nc1Cl` [Compound 50, 5-(N,N-Dimethyl)amiloride hydrochloride], the “Compound effect (percent receptor signaling in presence of test compound, relative lux units relative to the SCH23390 control)” value is reported as 108. For `CCCN(CCC)C(=O)C(CCC(=O)O)NC(=O)c1ccccc1` (centres unmarked) [Compound 812, Proglumide], the “Compound effect (percent receptor signaling in presence of test compound, relative lux units relative to the SCH23390 control)” value was 97. For `CN1CCN(CC(=O)N2c3ccccc3C(=O)Nc3cccnc32)CC1` [Compound 969, Pirenzepine dihydrochloride], the “Compound effect (percent receptor signaling in presence of test compound, relative lux units relative to the SCH23390 control)” value was 114. With `C[N+]1(C)C2CCC1CC(OC(=O)c1c[nH]c3ccccc13)C2.[I-]` (centres unmarked) [Compound 1224, 3-Tropanylindole-3-carboxylate methiodide] the “Compound effect (percent receptor signaling in presence of test compound, relative lux units relative to the SCH23390 control)” value was 91. `CC(C)NC(C)Cc1ccc(I)cc1` (centres unmarked) [Compound 670, Iofetamine hydrochloride] was tested, and the “Compound effect (percent receptor signaling in presence of test compound, relative lux units relative to the SCH23390 control)” value was 90. `NCCCCNCCCN` [Compound 1089, Spermidine trihydrochloride] was tested, and the “Compound effect (percent receptor signaling in presence of test compound, relative lux units relative to the SCH23390 control)” value was 104. With `C=C(C)[C@H]1CN[C@H](C(=O)O)[C@H]1CC(=O)O` [Compound 682, Kainic acid] the “Compound effect (percent receptor signaling in presence of test compound, relative lux units relative to the SCH23390 control)” value was 98. With `C[N+](C)(C)CC=O` [Compound 171, Betaine aldehyde chloride] the “Compound effect (percent receptor signaling in presence of test compound, relative lux units relative to the SCH23390 control)” value was 99. `c1ccc(-c2ccccn2)nc1` [Compound 408, 2,2'-Bipyridyl] was tested, and the “Compound effect (percent receptor signaling in presence of test compound, relative lux units relative to the SCH23390 control)” value was 94. With `Cc1ccccc1N1C(=O)c2cc(S(N)(=O)=O)c(Cl)cc2NC1C` (centres unmarked) [Compound 820, Metolazone] the “Compound effect (percent receptor signaling in presence of test compound, relative lux units relative to the SCH23390 control)” value was 90. In the case of `CC(=O)N1CCN(c2ccc(OCC3COC(Cn4ccnc4)(c4ccc(Cl)cc4Cl)O3)cc2)CC1` (centres unmarked) [Compound 683, Ketoconazole], the “Compound effect (percent receptor signaling in presence of test compound, relative lux units relative to the SCH23390 control)” value is reported as 85. With `COc1cc(NS(C)(=O)=O)ccc1Nc1c2ccccc2nc2ccccc12` [Compound 112, Amsacrine hydrochloride] the “Compound effect (percent receptor signaling in presence of test compound, relative lux units relative to the SCH23390 control)” value was 97. For `COc1[nH]c2ccc(F)cc2c1C(=O)OCC1CCN(CCNS(C)(=O)=O)CC1.NS(=O)(=O)O` [Compound 626, GR 125487 sulfamate salt], the “Compound effect (percent receptor signaling in presence of test compound, relative lux units relative to the SCH23390 control)” value was 87. With `O=c1cc(O)cc(/C=C/c2ccc(O)c(O)c2)o1` [Compound 592, Hispidin] the “Compound effect (percent receptor signaling in presence of test compound, relative lux units relative to the SCH23390 control)” value was 81. For OXA-22 iodide [Compound 326], the “Compound effect (percent receptor signaling in presence of test compound, relative lux units relative to the SCH23390 control)” value was 88. In the case of `CC#C[C@]1(O)CC[C@H]2[C@@H]3CCC4=CC(=O)CCC4=C3[C@@H](c3ccc(N(C)C)cc3)C[C@@]21C` [Compound 801, Mifepristone], the “Compound effect (percent receptor signaling in presence of test compound, relative lux units relative to the SCH23390 control)” value is reported as 94. For `CN(C)c1cc2c(Nc3ccc4c(cnn4Cc4ccccc4)c3)ncnc2cn1` [Compound 547, GW2974], the “Compound effect (percent receptor signaling in presence of test compound, relative lux units relative to the SCH23390 control)” value was 68. `N#C/C(=C\c1ccc(O)c(O)c1)C(N)=S` [Compound 1203, Tyrphostin 47] was tested, and the “Compound effect (percent receptor signaling in presence of test compound, relative lux units relative to the SCH23390 control)” value was 61. For `Nc1ccn([C@H]2CC[C@@H](CO)O2)c(=O)n1` [Compound 396, 2',3'-dideoxycytidine], the “Compound effect (percent receptor signaling in presence of test compound, relative lux units relative to the SCH23390 control)” value was 102. In the case of `Nc1ncnc2c1ncn2[C@@H]1O[C@H](CO)[C@@H](O)[C@H]1O` [Compound 101, Adenosine], the “Compound effect (percent receptor signaling in presence of test compound, relative lux units relative to the SCH23390 control)” value is reported as 96. `CC[C@H](NC(=O)c1c(C)c(-c2ccccc2)nc2ccccc12)c1ccccc1` [Compound 154, SB 222200] was tested, and the “Compound effect (percent receptor signaling in presence of test compound, relative lux units relative to the SCH23390 control)” value was 92. For `CN1[C@@H]2CC[C@H]1C[C@@H](OC(=O)[C@H](CO)c1ccccc1)C2` [Compound 609, L-Hyoscyamine], the “Compound effect (percent receptor signaling in presence of test compound, relative lux units relative to the SCH23390 control)” value was 75. For `O=C1c2c(O)ccc(O)c2C(=O)c2c(NCCNCCO)ccc(NCCNCCO)c21` [Compound 790, Mitoxantrone], the “Compound effect (percent receptor signaling in presence of test compound, relative lux units relative to the SCH23390 control)” value was 18. For `NC(=O)CN1CCCC1=O` [Compound 951, Piracetam], the “Compound effect (percent receptor signaling in presence of test compound, relative lux units relative to the SCH23390 control)” value was 103. In the case of `Oc1ccc(Cn2ccnc2S)cc1` [Compound 595, 1-(4-Hydroxybenzyl)imidazole-2-thiol], the “Compound effect (percent receptor signaling in presence of test compound, relative lux units relative to the SCH23390 control)” value is reported as 63. In the case of `COC(=O)C1=C(C)NC(C)=C(C(=O)OCCN(C)Cc2ccccc2)C1c1cccc([N+](=O)[O-])c1` (centres unmarked) [Compound 865, Nicardipine hydrochloride], the “Compound effect (percent receptor signaling in presence of test compound, relative lux units relative to the SCH23390 control)” value is reported as 76. For `Cl.Cl.N=C(N)c1ccc(N)cc1` [Compound 79, 4-Aminobenzamidine dihydrochloride], the “Compound effect (percent receptor signaling in presence of test compound, relative lux units relative to the SCH23390 control)” value was 106. For `O=c1oc(Cl)c(Cl)c2ccccc12` [Compound 413, 3,4-Dichloroisocoumarin], the “Compound effect (percent receptor signaling in presence of test compound, relative lux units relative to the SCH23390 control)” value was 96. For `OCc1ccc(-c2nn(Cc3ccccc3)c3ccccc23)o1` [Compound 1275, YC-1], the “Compound effect (percent receptor signaling in presence of test compound, relative lux units relative to the SCH23390 control)” value was 136. In the case of `Cc1cn[nH]c1.Cl` [Compound 737, 4-Methylpyrazole hydrochloride], the “Compound effect (percent receptor signaling in presence of test compound, relative lux units relative to the SCH23390 control)” value is reported as 111. In the case of `NC12CC3CC(CC(C3)C1)C2` [Compound 25, Amantadine hydrochloride], the “Compound effect (percent receptor signaling in presence of test compound, relative lux units relative to the SCH23390 control)” value is reported as 84. In the case of `CC(C(=O)O)c1ccc(CC2CCCC2=O)cc1` (centres unmarked) [Compound 692, loxoprofen], the “Compound effect (percent receptor signaling in presence of test compound, relative lux units relative to the SCH23390 control)” value is reported as 92. For `O=C1N(c2ccccc2)c2ccccc2C1(Cc1ccncc1)Cc1ccncc1` [Compound 730, Linopirdine], the “Compound effect (percent receptor signaling in presence of test compound, relative lux units relative to the SCH23390 control)” value was 106. In the case of `OCc1cc(C(O)CNCCCCCCOCCCCc2ccccc2)ccc1O` (centres unmarked) [Compound 1118, Salmeterol], the “Compound effect (percent receptor signaling in presence of test compound, relative lux units relative to the SCH23390 control)” value is reported as 104. With `C#CCOC(=O)C1=CCCN(C)C1` [Compound 126, Arecaidine propargyl ester hydrobromide] the “Compound effect (percent receptor signaling in presence of test compound, relative lux units relative to the SCH23390 control)” value was 85. For `CC(CN(C)C)CN1c2ccccc2CCc2ccccc21` (centres unmarked) [Compound 1164, Trimipramine maleate], the “Compound effect (percent receptor signaling in presence of test compound, relative lux units relative to the SCH23390 control)” value was 13.

Same assay, conditions: 10 µM compound, 300 nM dopamine, 2 hr; hit = compound effect <20
In the case of `N[C@@H](COP(=O)(O)O)C(=O)O` [Compound 921, O-Phospho-L-serine], the “Compound effect (percent receptor signaling in presence of test compound, relative lux units relative to the SCH23390 control)” value is reported as 102%. `CC(O)C(O)[C@H]1CNc2nc(N)[nH]c(=O)c2N1.Cl.Cl` (stereo partly drawn) [Compound 1173, (6R)-5,6,7,8-Tetrahydro-L-biopterin hydrochloride] was tested, and the “Compound effect (percent receptor signaling in presence of test compound, relative lux units relative to the SCH23390 control)” value was 109%. For `NC(Cc1ccc(Cl)cc1)C(=O)O` (racemic) [Compound 285, (±)-p-Chlorophenylalanine], the “Compound effect (percent receptor signaling in presence of test compound, relative lux units relative to the SCH23390 control)” value was 62%. With `COc1nc(C)nc(Cl)c1NC1=NCCN1.Cl` [Compound 740, Moxonidine hydrochloride] the “Compound effect (percent receptor signaling in presence of test compound, relative lux units relative to the SCH23390 control)” value was 94%. `Nc1nc2c(nc(Br)n2[C@@H]2O[C@@H]3COP(=O)([O-])O[C@H]3[C@H]2O)c(=O)[nH]1.[Na+]` [Compound 157, 8-Bromo-cGMP sodium] was tested, and the “Compound effect (percent receptor signaling in presence of test compound, relative lux units relative to the SCH23390 control)” value was 117%.

Same assay, conditions: read-out: % of the SCH23390 effect (percent inhibition of receptor response relative to the SCH23390 control)
With `CN(C)CCCN1c2ccccc2Sc2ccc(C(F)(F)F)cc21` [Compound 1163, Triflupromazine hydrochloride] the inhibition at 10 µM was 88%. Molecule `O=C1c2c(O)ccc(O)c2C(=O)c2c(NCCNCCO)ccc(NCCNCCO)c21` [Compound 790, Mitoxantrone] has an inhibition at 10 µM of 83%. `CC(CN(C)C)CN1c2ccccc2CCc2ccccc21` (centres unmarked) [Compound 1164, Trimipramine maleate] showed an inhibition at 10 µM of 87%.
